Measurements as given in patent US9506056B2, “Nucleic acid functionalized nanoparticles for therapeutic applications” (NORTHWESTERN UNIVERSITY, priority 2006, dated 2016).
Structures can show the parent of a compound that is named as a salt.

Test system: A549 cells
Experiment: Cell viability of dox-treated A549 cultures with oligonucleotide-modified nanoparticles
Assay type: cell-based, human
Details: dox alone at 25 μm dox concentration
Method: As proof of the oligonucleotide-modified gold nanoparticle for drug control concept, the anticancer drug doxorubicin hydrochloride (dox) in a lung cancer cell model (A549) was investigated. […] However, when an oligonucleotide functionalized nanoparticle agent containing a non-specific sequence is added to the culture at the same point as the drug molecule, a dose-dependant recovery of cell viability is observed (cells recover to approximately 80% viable at 3 nM concentration of nanoparticles). The dox-treated cells were then examined in the presence of an anti-survivin oligonucleotide modified gold nanoparticle conjugate. […] In these studies, the anti-survivin containing nanoparticle agent added to the culture at the same point as the drug molecule reduce cell viability to 45% at low concentrations and recover cell viability to 75% at high concentrations (FIG. 3).

With COc1cccc2c1C(=O)c1c(O)c3c(c(O)c1C2=O)C[C@@](O)(C(=O)CO)C[C@@H]3O[C@H]1C[C@H](N)[C@H](O)[C@H](C)O1 [dox, doxorubicin hydrochloride] the cell viability was “approximately 60%”.
